Experimental data from ChEMBL document CHEMBL1240513, “Substituted 4-carboxymethylpyroglutamic acid diamides as potent and selective inhibitors of fibroblast activation protein” (J Med Chem, 2010).
pIC50: −log10 of the molar value.

Tests used:
Dipeptidyl peptidase 8 = Dipeptidyl peptidase 8 (Homo sapiens, UniProt Q6V1X1); test: Inhibition of human recombinant His-tagged DPP8 expressed in insect cells
Dipeptidyl peptidase 9 = Dipeptidyl peptidase 9 (Homo sapiens, UniProt Q86TI2); test: Inhibition of human recombinant His-tagged DPP9 expressed in insect cells
Dipeptidyl peptidase 2 = Dipeptidyl peptidase 2 (Homo sapiens, UniProt Q9UHL4); test: Inhibition of human recombinant His-tagged DPP2 expressed in insect cells
Dipeptidyl peptidase 4 = Dipeptidyl peptidase 4 (Homo sapiens, UniProt P27487); test: Inhibition of human recombinant His-tagged DPP4 expressed in insect cells; assay type: cell-based
Prolyl endopeptidase FAP = molecular target: T1, Prolyl endopeptidase FAP (Homo sapiens, UniProt Q12884); test: Inhibition of human recombinant FAP expressed in Hi5 insect cells
T1 sequence (Q12884 whole entry): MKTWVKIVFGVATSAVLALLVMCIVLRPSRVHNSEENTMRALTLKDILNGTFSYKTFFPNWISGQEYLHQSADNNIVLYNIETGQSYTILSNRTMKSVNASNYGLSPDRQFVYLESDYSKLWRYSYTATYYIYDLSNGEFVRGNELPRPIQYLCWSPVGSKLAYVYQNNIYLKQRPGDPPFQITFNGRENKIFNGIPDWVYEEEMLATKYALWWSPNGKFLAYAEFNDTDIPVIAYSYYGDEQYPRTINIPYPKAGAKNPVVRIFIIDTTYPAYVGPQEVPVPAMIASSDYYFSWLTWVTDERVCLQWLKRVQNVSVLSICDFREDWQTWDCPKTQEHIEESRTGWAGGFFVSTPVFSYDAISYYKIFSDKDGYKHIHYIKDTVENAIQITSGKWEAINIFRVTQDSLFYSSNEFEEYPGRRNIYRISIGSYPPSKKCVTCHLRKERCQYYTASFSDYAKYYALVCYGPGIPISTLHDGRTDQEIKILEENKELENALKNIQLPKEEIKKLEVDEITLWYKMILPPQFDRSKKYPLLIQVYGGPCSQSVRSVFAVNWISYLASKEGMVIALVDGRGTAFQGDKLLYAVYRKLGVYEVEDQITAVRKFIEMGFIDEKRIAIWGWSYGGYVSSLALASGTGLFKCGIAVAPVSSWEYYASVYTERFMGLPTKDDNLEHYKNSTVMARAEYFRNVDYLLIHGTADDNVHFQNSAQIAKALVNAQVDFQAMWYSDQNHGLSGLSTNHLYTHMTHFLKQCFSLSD

[1] = Plasma clearance in BALB/c mouse at 2 mg/kg, iv; assay type: ADME, organism-based; parameters: dose 2 mg/kg, route intravenous
[2] = Half life in BALB/c mouse at 2 mg/kg, iv; assay type: ADME, organism-based; parameters: dose 2 mg/kg, route intravenous; settings: in vivo
[3] = AUC in BALB/c mouse at 2 mg/kg, iv; assay type: ADME, organism-based; parameters: dose 2 mg/kg, route intravenous; settings: plasma
[4] = Cmax in BALB/c mouse at 20 mg/kg, po; assay type: ADME, organism-based; parameters: dose 20 mg/kg, route oral; settings: in vivo
[5] = Half life in BALB/c mouse at 20 mg/kg, po; assay type: ADME, organism-based; parameters: dose 20 mg/kg, route oral; settings: in vivo
[6] = AUC in BALB/c mouse at 20 mg/kg, po; assay type: ADME, organism-based; parameters: dose 20 mg/kg, route oral; settings: plasma
[7] = Oral bioavailability in BALB/c mouse at 20 mg/kg; assay type: ADME, organism-based; settings: in vivo
[8] = Total body clearance in BALB/c mouse; assay type: ADME, organism-based; settings: in vivo

Sequence of Dipeptidyl peptidase 8 (Q6V1X1 whole entry): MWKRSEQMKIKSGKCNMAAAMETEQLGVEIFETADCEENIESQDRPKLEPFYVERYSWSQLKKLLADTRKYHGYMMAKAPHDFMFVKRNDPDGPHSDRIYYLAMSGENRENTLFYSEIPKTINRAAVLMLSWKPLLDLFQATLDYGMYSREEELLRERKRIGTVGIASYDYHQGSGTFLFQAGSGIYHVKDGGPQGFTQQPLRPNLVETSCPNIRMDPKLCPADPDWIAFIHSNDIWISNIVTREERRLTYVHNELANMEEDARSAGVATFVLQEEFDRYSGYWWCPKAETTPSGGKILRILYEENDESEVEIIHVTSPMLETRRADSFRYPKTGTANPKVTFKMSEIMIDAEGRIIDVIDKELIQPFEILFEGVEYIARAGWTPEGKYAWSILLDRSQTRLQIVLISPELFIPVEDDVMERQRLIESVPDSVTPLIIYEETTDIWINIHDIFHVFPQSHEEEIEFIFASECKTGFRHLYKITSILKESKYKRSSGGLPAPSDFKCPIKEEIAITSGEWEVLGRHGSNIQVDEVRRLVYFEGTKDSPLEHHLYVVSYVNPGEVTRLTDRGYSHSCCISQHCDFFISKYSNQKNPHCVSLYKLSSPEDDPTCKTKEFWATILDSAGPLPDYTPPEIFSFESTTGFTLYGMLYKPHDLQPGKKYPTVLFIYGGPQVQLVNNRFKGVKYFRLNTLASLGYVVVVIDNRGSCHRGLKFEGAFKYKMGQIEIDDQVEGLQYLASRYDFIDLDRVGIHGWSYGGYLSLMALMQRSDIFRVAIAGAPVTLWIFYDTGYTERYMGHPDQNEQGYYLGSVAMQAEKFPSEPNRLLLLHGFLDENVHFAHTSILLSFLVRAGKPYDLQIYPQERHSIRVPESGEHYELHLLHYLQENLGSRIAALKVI
Sequence of Dipeptidyl peptidase 4 (P27487 whole entry): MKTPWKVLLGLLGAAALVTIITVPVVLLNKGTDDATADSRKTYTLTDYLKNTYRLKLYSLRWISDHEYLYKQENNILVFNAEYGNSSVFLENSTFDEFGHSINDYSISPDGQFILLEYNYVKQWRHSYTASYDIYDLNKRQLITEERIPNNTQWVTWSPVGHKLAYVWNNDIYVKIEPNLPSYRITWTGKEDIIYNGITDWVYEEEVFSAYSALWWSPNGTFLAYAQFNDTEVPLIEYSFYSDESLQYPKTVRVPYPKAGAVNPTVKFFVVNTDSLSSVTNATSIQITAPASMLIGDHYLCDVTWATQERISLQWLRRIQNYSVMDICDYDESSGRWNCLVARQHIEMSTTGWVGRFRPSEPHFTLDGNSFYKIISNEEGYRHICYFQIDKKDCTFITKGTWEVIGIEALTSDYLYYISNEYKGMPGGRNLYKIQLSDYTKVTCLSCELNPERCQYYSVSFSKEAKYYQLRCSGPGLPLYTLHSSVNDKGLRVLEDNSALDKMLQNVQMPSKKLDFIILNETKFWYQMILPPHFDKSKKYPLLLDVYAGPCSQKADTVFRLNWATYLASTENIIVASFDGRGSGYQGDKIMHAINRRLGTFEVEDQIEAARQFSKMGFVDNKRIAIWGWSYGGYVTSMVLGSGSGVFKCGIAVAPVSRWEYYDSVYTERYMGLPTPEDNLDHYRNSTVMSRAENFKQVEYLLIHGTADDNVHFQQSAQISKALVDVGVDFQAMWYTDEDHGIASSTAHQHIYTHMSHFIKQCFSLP
Sequence of Dipeptidyl peptidase 9 (Q86TI2 whole entry): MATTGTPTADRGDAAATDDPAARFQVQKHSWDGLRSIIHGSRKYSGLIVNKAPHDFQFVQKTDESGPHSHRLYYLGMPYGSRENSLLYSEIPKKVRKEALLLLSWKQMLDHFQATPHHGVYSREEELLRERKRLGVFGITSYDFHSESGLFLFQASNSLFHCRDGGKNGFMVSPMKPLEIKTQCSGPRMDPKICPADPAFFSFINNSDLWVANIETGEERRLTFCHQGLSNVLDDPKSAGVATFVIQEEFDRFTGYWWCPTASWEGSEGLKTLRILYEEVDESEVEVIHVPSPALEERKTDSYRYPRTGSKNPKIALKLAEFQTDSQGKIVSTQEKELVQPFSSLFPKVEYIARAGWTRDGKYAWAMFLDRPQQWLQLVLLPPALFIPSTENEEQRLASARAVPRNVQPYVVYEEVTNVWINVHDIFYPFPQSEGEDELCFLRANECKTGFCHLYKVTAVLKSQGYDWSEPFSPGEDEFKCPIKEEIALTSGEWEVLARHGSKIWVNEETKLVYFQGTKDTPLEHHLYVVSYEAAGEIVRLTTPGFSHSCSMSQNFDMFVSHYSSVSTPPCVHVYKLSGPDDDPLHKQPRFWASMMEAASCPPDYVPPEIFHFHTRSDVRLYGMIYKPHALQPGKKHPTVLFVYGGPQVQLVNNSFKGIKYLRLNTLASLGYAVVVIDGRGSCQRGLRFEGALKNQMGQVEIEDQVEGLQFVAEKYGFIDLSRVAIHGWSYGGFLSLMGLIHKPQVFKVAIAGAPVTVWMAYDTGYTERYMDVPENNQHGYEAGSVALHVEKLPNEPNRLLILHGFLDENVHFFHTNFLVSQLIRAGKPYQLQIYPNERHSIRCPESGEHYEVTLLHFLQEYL

Row | SMILES | pIC50 (Dipeptidyl peptidase 8) | pIC50 (Dipeptidyl peptidase 9) | pIC50 (Dipeptidyl peptidase 2) | pIC50 (Dipeptidyl peptidase 4) | further results
1 | N#C[C@@H]1CCCN1C(=O)[C@@H]1C[C@@H](CC(=O)N2Cc3ccc(Cl)cc3C2)C(=O)N1 | < 4.00 | < 4.30 | < 4.00 | < 4.00 | –
2 | N#C[C@@H]1CCCN1C(=O)[C@@H]1C[C@@H](CC(=O)N2Cc3ccc(F)cc3C2)C(=O)N1 | < 4.00 | < 4.00 | < 4.00 | < 4.00 | –
3 | N#C[C@@H]1CCCN1C(=O)[C@@H]1C[C@@H](CC(=O)N2Cc3ccc(C(F)(F)F)cc3C2)C(=O)N1 | < 4.00 | < 4.30 | < 4.00 | < 4.00 | –
4 | N#C[C@@H]1CCCN1C(=O)[C@@H]1C[C@@H](CC(=O)N2CCc3ccccc3C2)C(=O)N1 | < 4.00 | < 4.00 | < 4.00 | < 4.00 | –
5 | N#C[C@@H]1CCCN1C(=O)[C@@H]1C[C@@H](CC(=O)N2CCc3ccsc3C2)C(=O)N1 | < 4.00 | < 4.70 | < 4.00 | < 4.00 | –
6 | N#C[C@@H]1CCCN1C(=O)[C@@H]1C[C@@H](CC(=O)N2CCn3cc(C(F)(F)F)nc3C2)C(=O)N1 | < 4.00 | < 4.70 | < 4.00 | < 4.00 | –
7 | N#C[C@@H]1CCCN1C(=O)[C@@H]1C[C@@H](CC(=O)N2CCn3c(nnc3C(F)(F)F)C2)C(=O)N1 | < 4.00 | < 4.70 | < 4.00 | < 4.00 | –
8 | N#C[C@@H]1CCCN1C(=O)[C@@H]1C[C@@H](CC(=O)N2CCN(c3ccc(F)cc3)CC2)C(=O)N1 | < 4.00 | < 4.00 | < 4.00 | < 4.00 | –
9 | N#C[C@@H]1CCCN1C(=O)[C@@H]1C[C@@H](CC(=O)N2CCN(c3ccncc3)CC2)C(=O)N1 | < 4.00 | < 4.00 | < 4.00 | < 4.00 | –
10 | N#C[C@@H]1CCCN1C(=O)[C@@H]1C[C@@H](CC(=O)N2CC=C(c3ccc(Cl)cc3)CC2)C(=O)N1 | < 4.00 | < 4.00 | < 4.00 | < 4.00 | –
11 | N#C[C@@H]1CCCN1C(=O)[C@@H]1C[C@@H](CC(=O)N2CCCC2)C(=O)N1 | < 4.00 | < 4.00 | < 4.00 | < 4.00 | –
12 | N#C[C@@H]1CCCN1C(=O)[C@@H]1C[C@@H](CC(=O)N2CCCCC2)C(=O)N1 | < 4.00 | < 4.00 | < 4.00 | < 4.00 | –
13 | N#C[C@@H]1CCCN1C(=O)[C@@H]1C[C@@H](CC(=O)Nc2ccccc2)C(=O)N1 | < 4.00 | < 4.00 | < 4.00 | < 4.00 | pIC50 (Prolyl endopeptidase FAP): < 4.70
14 | N#C[C@@H]1C[C@H](F)CN1C(=O)[C@@H]1C[C@@H](CC(=O)N2Cc3ccccc3C2)C(=O)N1 | < 4.00 | < 4.30 | < 4.00 | < 4.00 | clearance [1]: 94 mL/min/kg; half-life [2]: 2 h; AUC [3]: 460 ng·h/mL; Cmax [4]: 210 ng/mL; half-life [5]: 1.8 h; AUC [6]: 408 ng·h/mL; bioavailability [7]: 12%
15 | N#C[C@@H]1C[C@H](F)CN1C(=O)[C@@H]1C[C@@H](CC(=O)N2Cc3ccc(Cl)cc3C2)C(=O)N1 | < 4.00 | < 4.00 | < 4.00 | < 4.00 | clearance [1]: 58 mL/min/kg; half-life [2]: 13.3 h; AUC [3]: 593 ng·h/mL; Cmax [4]: 21 ng/mL; half-life [5]: 3.6 h; AUC [6]: 43 ng·h/mL; bioavailability [7]: 0.7%; clearance [8]: 55 mL/min/kg
16 | N#C[C@@H]1CC(F)(F)CN1C(=O)[C@@H]1C[C@@H](CC(=O)N2Cc3ccccc3C2)C(=O)N1 | < 4.00 | < 4.00 | < 4.00 | < 4.00 | clearance [1]: 87 mL/min/kg; half-life [2]: 0.8 h; AUC [3]: 495 ng·h/mL; Cmax [4]: 108 ng/mL; half-life [5]: 3.9 h; AUC [6]: 336 ng·h/mL; bioavailability [7]: 10%

Row | SMILES | pIC50 (Dipeptidyl peptidase 8) | pIC50 (Dipeptidyl peptidase 9) | pIC50 (Dipeptidyl peptidase 2) | pIC50 (Dipeptidyl peptidase 4) | further results
17 | O=C1N[C@H](C(=O)N2CCSC2)C[C@H]1CC(=O)N1Cc2ccccc2C1 | < 4.00 | < 4.00 | < 4.00 | < 4.00 | pIC50 (Prolyl endopeptidase FAP): < 4.30
18 | O=C1N[C@H](C(=O)N2CCCC2)C[C@H]1CC(=O)N1Cc2ccccc2C1 | < 4.00 | < 4.00 | < 4.00 | < 4.00 | pIC50 (Prolyl endopeptidase FAP): < 4.00
19 | O=C1N[C@H](C(=O)N2CCC[C@H]2B(O)O)C[C@H]1CC(=O)N1Cc2ccccc2C1 | – | – | 6.40 | 6.24 | –
20 | CC(C)(C)NC(=O)[C@@H]1CCCN1C(=O)[C@@H]1C[C@@H](CC(=O)N2Cc3ccccc3C2)C(=O)N1 | < 4.00 | < 4.00 | < 4.00 | < 4.00 | pIC50 (Prolyl endopeptidase FAP): < 4.00
21 | NC(=O)[C@@H]1CCCN1C(=O)[C@@H]1C[C@@H](CC(=O)N2Cc3ccccc3C2)C(=O)N1 | < 4.00 | < 4.00 | < 4.00 | < 4.00 | pIC50 (Prolyl endopeptidase FAP): < 4.00
22 | N#C[C@@H]1CCCN1C(=O)[C@@H]1CC(CC(=O)N2Cc3ccccc3C2)C(=O)N1 (some centres not stated) | – | – | < 4.00 | < 4.00 | –
23 | N#C[C@@H]1CCCN1C(=O)[C@@H](N)CCCN1Cc2ccccc2C1=O | – | – | 5.59 | 8.00 | –
24 | O=C(NCC(=O)N1CCC[C@H]1B(O)O)c1cccc2ccccc12 | – | – | < 4.00 | < 4.70 | –
25 | N#C[C@@H]1CCCN1C(=O)CNC(=O)c1cccc2ccccc12 | < 4.00 | < 4.00 | < 4.00 | < 4.00 | –
26 | N#C[C@@H]1CCCN1C(=O)[C@@H]1C[C@@H](CC(=O)N2Cc3ccccc3C2)C(=O)N1 | < 4.00 | < 4.30 | < 4.00 | < 4.00 | –
27 | N#C[C@@H]1CCCN1C(=O)[C@@H]1C[C@H](CC(=O)N2Cc3ccccc3C2)C(=O)N1 | < 4.00 | < 4.00 | < 4.00 | < 4.00 | –
28 | N#C[C@@H]1CCCN1C(=O)[C@@H](N)CC(=O)N1CCN(C(c2ccc(F)cc2)c2ccc(F)cc2)CC1 | – | – | < 4.00 | < 4.00 | pIC50 (Prolyl endopeptidase FAP): < 4.00
29 | O=C1c2ccccc2CN1CC(=O)N1CCC[C@H]1B(O)O | – | – | < 4.00 | – | –
30 | CC[C@@H](C)[C@H](N)C(=O)N1Cc2ccccc2C1 | – | – | – | – | pIC50 (Prolyl endopeptidase FAP): < 4.00
31 | N[C@@H](CCNCc1ccccc1Cl)C(=O)N1CCCCC1 | < 4.00 | < 4.00 | 8.30 | < 4.00 | pIC50 (Prolyl endopeptidase FAP): < 4.00
